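Protocol summary: plate cells (96-well), add compound at 5 concentrations, incubate 48 h, interpolate endpoints linearly. The concentration for 50% growth inhibition is given as GI50. TGI: total growth inhibition.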
Key:
Assay in all cases: inhibition of tumour cell growth, NCI panel, 48 h
[1] = system: MDA-MB-231 breast
[2] = system: SN12C renal
[3] = system: UACC-257 melanoma
[4] = system: HCC-2998 colon
[5] = system: SF-268 CNS
[6] = system: PC-3 prostate
[7] = system: OVCAR-4 ovarian
[8] = system: SK-MEL-2 melanoma
[9] = system: MALME-3M melanoma
[10] = system: COLO 205 colon
[11] = system: TK-10 renal
[12] = system: RXF 393 renal
[13] = system: IGROV1 ovarian
[14] = system: UO-31 renal
[15] = system: BT-549 breast
[16] = system: NCI/ADR-RES ovarian
[17] = system: CCRF-CEM leukemia
[18] = system: 786-0 renal
[19] = system: SK-MEL-5 melanoma
[20] = system: HOP-62 NSCLC
[21] = system: NCI-H460 lung
[22] = system: SNB-19 CNS
[23] = system: CAKI-1 renal
[24] = system: SF-295 CNS
[25] = system: LOX IMVI melanoma
[26] = system: ACHN renal
[27] = system: KM12 colon
[28] = system: DU-145 prostate
[29] = system: U251 CNS
[30] = system: SK-OV-3 ovarian
[31] = system: HCT-116 colon
[32] = system: HT29 colon
[33] = system: SK-MEL-28 melanoma
[34] = system: NCI-H226 lung
[35] = system: OVCAR-5 ovarian
[36] = system: A498 renal
[37] = system: SW-620 colon
[38] = system: K-562 leukemia
[39] = system: A549 NSCLC
[40] = system: M14 melanoma
[41] = system: MCF7 breast
[42] = system: HCT-15 colon
[43] = system: RPMI-8226 leukemia
[44] = system: MDA-MB-435
[45] = system: HS 578T breast
[46] = system: OVCAR-3 ovarian
[47] = system: T-47D breast
[48] = system: EKVX NSCLC
[49] = system: HL-60(TB) leukemia
[50] = system: SF-539 CNS
[51] = system: HOP-92 NSCLC
[52] = system: NCI-H23 lung
[53] = system: UACC-62 melanoma
[54] = system: SR leukemia
[55] = system: MOLT-4 leukemia
[56] = system: SNB-75 CNS
[57] = system: NCI-H522 lung

`CCCCN(CCCC)CCCN=c1nc2c(c(N)n1-c1ccccc1)c(=S)n(-c1ccccc1)c(=S)n2-c1ccccc1` gave a GI50 [1] of 555 nM, a TGI [1] of 1530 nM and a GI50 [2] of 1410 nM. The TGI [2] was 2790 nM, the GI50 [3] was 609 nM and the TGI [3] was 1270 nM. It also gave a GI50 [4] of 825 nM, a TGI [4] of 2520 nM and a GI50 [5] of 1140 nM. For the same compound, the TGI [5] was 2470 nM, the GI50 [6] was 590 nM and the TGI [6] was 1940 nM. It also gave a GI50 [7] of 994 nM, a TGI [7] of 2460 nM and a GI50 [8] of 1740 nM. It also gave a TGI [8] of 3470 nM, a GI50 [9] of 604 nM and a TGI [9] of 1310 nM. The GI50 [10] was 329 nM, the TGI [10] was 1390 nM and the GI50 [11] was 1280 nM. It also gave a TGI [11] of 2690 nM, a GI50 [12] of 1960 nM and a TGI [12] of 4750 nM. It also gave a GI50 [13] of 1900 nM, a TGI [13] of 3790 nM and a GI50 [14] of 389 nM. It also gave a TGI [14] of 1020 nM, a GI50 [15] of 1670 nM and a TGI [15] of 3380 nM. It also gave a GI50 [16] of 2090 nM, a TGI [16] of 4120 nM and a GI50 [17] of 215 nM. The GI50 [18] was 501 nM, the TGI [18] was 1080 nM and the GI50 [19] was 1020 nM. It also gave a TGI [19] of 2300 nM, a GI50 [20] of 1450 nM and a TGI [20] of 3030 nM. For the same compound, the GI50 [21] was 483 nM, the TGI [21] was 1710 nM and the GI50 [22] was 1290 nM. The TGI [22] was 2740 nM, the GI50 [23] was 384 nM and the TGI [23] was 1490 nM. It also gave a GI50 [24] of 1400 nM, a TGI [24] of 3000 nM and a GI50 [25] of 303 nM. It also gave a TGI [25] of 773 nM, a GI50 [26] of 567 nM and a TGI [26] of 1800 nM. For the same compound, the GI50 [27] was 415 nM, the TGI [27] was 1460 nM and the GI50 [28] was 1340 nM. It also gave a TGI [28] of 2750 nM, a GI50 [29] of 340 nM and a TGI [29] of 1270 nM. For the same compound, the GI50 [30] was 1550 nM, the TGI [30] was 3040 nM and the GI50 [31] was 412 nM. For the same compound, the TGI [31] was 1500 nM, the GI50 [32] was 276 nM and the TGI [32] was 784 nM. For the same compound, the GI50 [33] was 173 nM, the TGI [33] was 338 nM and the GI50 [34] was 1610 nM. The TGI [34] was 3110 nM, the GI50 [35] was 1670 nM and the TGI [35] was 3240 nM. The GI50 [36] was 1060 nM, the TGI [36] was 2390 nM and the GI50 [37] was 568 nM. It also gave a TGI [37] of 2620 nM, a GI50 [38] of 540 nM and a TGI [38] greater than 100000 nM. For the same compound, the GI50 [39] was 1460 nM, the TGI [39] was 3480 nM and the GI50 [40] was 206 nM. For the same compound, the TGI [40] was 424 nM, the GI50 [41] was 361 nM and the TGI [41] was 1510 nM. The GI50 [42] was 309 nM, the TGI [42] was 1140 nM and the GI50 [43] was 159 nM. The TGI [43] was 327 nM, the GI50 [44] was 301 nM and the TGI [44] was 930 nM. It also gave a GI50 [45] of 780 nM, a TGI [45] of 3160 nM and a GI50 [46] of 997 nM. The TGI [46] was 2300 nM, the GI50 [47] was 1730 nM and the TGI [47] was 3790 nM. For the same compound, the GI50 [48] was 840 nM, the TGI [48] was 2690 nM and the GI50 [49] was 211 nM. For the same compound, the TGI [49] was greater than 100000 nM, the GI50 [50] was 1360 nM and the TGI [50] was 2840 nM. For the same compound, the GI50 [51] was 229 nM, the TGI [51] was 830 nM and the GI50 [52] was 1880 nM. The TGI [52] was 3970 nM, the GI50 [53] was 714 nM and the TGI [53] was 2020 nM. The GI50 [54] was 273 nM, the TGI [54] was 1460 nM and the GI50 [55] was 141 nM. For the same compound, the TGI [55] was greater than 34100 nM, the GI50 [56] was 719 nM and the TGI [56] was 2110 nM. The GI50 [57] was 664 nM and the TGI [57] was 2230 nM.

From PubChem BioAssay (NCI)
